Columns and labels:
human OX1 receptor = biological target: T1, human OX1 receptor (Homo sapiens, UniProt O43613); assay: [3H]-radioligand binding assay, OX1; parameters: made in house; host or cells: SF21 insect cells (baculovirus; P0 virus made in SF9); conditions: [3H]-radioligand binding, human OX1 membranes; read-out: pKi average OX1 (converted)
T1 sequence (O43613 1-425): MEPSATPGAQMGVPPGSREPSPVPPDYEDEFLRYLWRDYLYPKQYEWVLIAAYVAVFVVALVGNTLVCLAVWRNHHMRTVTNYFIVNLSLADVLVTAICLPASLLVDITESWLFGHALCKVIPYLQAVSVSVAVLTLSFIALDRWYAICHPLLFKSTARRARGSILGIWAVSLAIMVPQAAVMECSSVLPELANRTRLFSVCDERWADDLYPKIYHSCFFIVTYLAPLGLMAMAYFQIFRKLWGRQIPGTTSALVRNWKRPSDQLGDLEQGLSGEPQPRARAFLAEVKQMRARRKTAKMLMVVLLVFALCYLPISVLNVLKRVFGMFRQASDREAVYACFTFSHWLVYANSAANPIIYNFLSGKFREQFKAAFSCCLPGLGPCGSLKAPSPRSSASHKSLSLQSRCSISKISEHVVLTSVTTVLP
Excerpt: (§1) Cloning, Baculovirus generation, large-scale infection of SF21 cells and membrane preparation. Human OX1 or OX2 receptor were cloned into Invitrogen's (ThermoFisher Scientific, UK) Bac-to-Bac Baculovirus Expression System. P0 baculovirus was generated by transfecting SF9 cells with bacmid DNA using Cellfectin® II transfection reagent (ThermoFisher Scientific, UK, Catalog number 10362-100). Following P0 generation P1 virus was then generated ready for large scale infection and membrane preparation. SF21 cells were grown in expression medium ESF921 (Expression Systems, USA, catalog number 96-001-01) supplemented with 10% heat-inactivated FBS and 1% Pen/Strep and were infected at a cell density of 2.5×10^6 cells/mL and a multiplicity of infection of 1.0 for both human OX1R and OX2R. Incubation was carried out at over 48 h in a shaking incubator set at 27° C. The cell culture was then centrifuged at 2,500 rcf for 10 min at 4° C. The pellets were resuspended in cold PBS supplemented with Roche's Complete EDTA-free protease inhibitor cocktail tablets (Roche Applied Sciences, catalog number 05056489001), 1 mM PMSF and 1 mM EDTA. The resuspended cell paste was then centrifuged at 3,273 rcf for 12 min at 4° C. The supernatant was discarded and the pellet frozen at −80° C. The cell pellet from a 4 L culture was resuspended in buffer containing 50 mM HEPES pH 7.5, 150 mM NaCl, 8 Roche EDTA-Free protease inhibitor cocktail tablets and 1 mM PMSF. The suspension was left stirring at rt for 1 h and then homogenised for 90 s at 9,500 rpm using a VDI 25 (VWR, USA) homogeniser. The cells were then lysed using a Microfluidiser processor M-110L Pneumatic (Microfluidics, USA) at 60 PSI and membranes collected by ultracentrifugation at 204.7 k×g for 1 h. The supernatant was discarded and the pellet was resuspended and homogenised in 90 s at 9,500 rpm in 50 mL (25 mL for each 2 L culture) of buffer containing 50 mM Hepes pH 7.5, 150 mM NaCl, 3 Roche EDTA-free protease inhibitor cocktail tablets and 1 mM PMSF. The resulting membranes were then stored at −80° C.
(§2) [^3H]-radioligand binding assay. After thawing, membrane homogenates were resuspended in the binding buffer (8.5 mM HEPES, pH 7.4, 1.3 mM CaCl2, 1.2 mM MgSO4, 118 mM NaCl, 4.7 mM KCl, 4 mM NaHCO3, 1.2 mM KH2PO4, 11 mM glucose) to a final assay concentration of 6.4 μg (OX1) or 1.4 μg (OX2) protein per well. Saturation isotherms were determined by the addition of various concentrations (0-30 nM) of [^3H]-4-(2,6-difluoro-4-methoxybenzyl)-2-(5,6-dimethoxypyridin-3-yl)-2H-1,2,4-benzothiadiazin-3(4H)-one 1,1-dioxide (Christopher et al, MedChemComm., 2015, 6, 947-955) in a total reaction volume of 250 μL for 90 min at rt. At the end of the incubation, membranes were filtered onto a 96-well GF/B filter pre-incubated with 0.5% polyethylenimine, with a Tomtec cell harvester and washed 5 times with 0.5 mL distilled water. Non-specific binding (NSB) was measured in the presence of 3.33 μM [4-(5-chloro-1,3-benzoxazol-2-yl)-7-methyl-1,4-diazepan-1-yl][5-methyl-2-(2H-1,2,3-triazol-2-yl)phenyl]methanone (Wertz et al, Angew. Chem. Int. Ed., 2011, 50, 11511-11515). Radioactivity on the filter was counted (1 min) on a Microbeta radiometric plate counter (Perkin Elmer) after addition of 50 μL of scintillation fluid (LabLogic: Part #SG-BXX-14). […] IC50 values were derived from the inhibition curve and the equilibrium dissociation constant (Ki) values were calculated using the Cheng-Prusoff equation.

human OX2 receptor = biological target: T2, human OX2 receptor (Homo sapiens, UniProt O43614); assay: [3H]-radioligand binding assay, OX2; parameters: made in house; host or cells: SF21 insect cells (baculovirus; P0 virus made in SF9); conditions: [3H]-radioligand binding, human OX2 membranes; read-out: pKi average OX2 (converted)
T2 sequence (O43614 1-444): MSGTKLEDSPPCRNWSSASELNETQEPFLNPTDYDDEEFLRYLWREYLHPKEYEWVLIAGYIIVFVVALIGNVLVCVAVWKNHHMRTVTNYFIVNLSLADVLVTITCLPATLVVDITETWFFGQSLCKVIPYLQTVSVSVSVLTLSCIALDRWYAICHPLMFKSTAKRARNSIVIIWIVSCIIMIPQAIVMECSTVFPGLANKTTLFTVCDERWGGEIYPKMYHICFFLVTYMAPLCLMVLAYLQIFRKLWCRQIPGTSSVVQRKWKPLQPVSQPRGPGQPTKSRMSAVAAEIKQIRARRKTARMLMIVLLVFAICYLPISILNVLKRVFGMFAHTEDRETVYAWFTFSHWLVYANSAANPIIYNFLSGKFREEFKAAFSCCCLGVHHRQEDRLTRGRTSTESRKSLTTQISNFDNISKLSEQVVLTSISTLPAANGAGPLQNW
Excerpt: as §1, §2

Structure (SMILES): [2H]C([2H])([2H])Oc1cc(F)c(CN2C(=O)N(c3cnc(OC)c(C(C)(F)F)c3)CCc3c(F)cccc32)c(F)c1 [Example 6, 3-[5-(1,1-difluoroethyl)-6-methoxypyridin-3-yl]-1-{2,6-difluoro-4-[(^2H3)methyloxy]benzyl}-6-fluoro-1,3,4,5-tetrahydro-2H-1,3-benzodiazepin-2-one]
- Ki (human OX1 receptor): 0.398 nM
- Ki (human OX2 receptor): 100 nM

Structure (SMILES): Cc1ncc(N2CCc3c(F)cccc3N(Cc3c(F)cc(Br)cc3F)C2=O)cc1OC(F)F [Example 37, 1-(4-bromo-2,6-difluorobenzyl)-3-[5-(difluoromethoxy)-6-methylpyridin-3-yl]-6-fluoro-1,3,4,5-tetrahydro-2H-1,3-benzodiazepin-2-one]
- Ki (human OX1 receptor): 1.58 nM

Structure (SMILES): COCc1cc(F)c(CN2C(=O)N(c3cnc(C)c(C(C)(F)F)c3)CCc3c(F)cccc32)c(F)c1 [Example 33, 3-[5-(1,1-difluoroethyl)-6-methylpyridin-3-yl]-1-[2,6-difluoro-4-(methoxymethyl)benzyl]-6-fluoro-1,3,4,5-tetrahydro-2H-1,3-benzodiazepin-2-one]
- Ki (human OX1 receptor): 0.631 nM
- Ki (human OX2 receptor): > 251 nM

Structure (SMILES): Cc1cc(C)c(S(C)(=O)=O)cc1N1CCc2ccccc2N(Cc2c(F)cc(OC(C)C)cc2F)C1=O [Example 30, 1-[2,6-difluoro-4-(propan-2-yloxy)benzyl]-3-[2,4-dimethyl-5-(methylsulfonyl)phenyl]-1,3,4,5-tetrahydro-2H-1,3-benzodiazepin-2-one]
- Ki (human OX1 receptor): 1.26 nM

Structure (SMILES): COc1cc(F)c(CN2C(=O)N(c3cnc(OC)c(S(C)(=O)=O)c3)CCc3c(F)cccc32)c(F)c1 [Example 16, 1-(2,6-difluoro-4-methoxybenzyl)-6-fluoro-3-[6-methoxy-5-(methylsulfonyl)pyridin-3-yl]-1,3,4,5-tetrahydro-2H-1,3-benzodiazepin-2-one]
- Ki (human OX1 receptor): 0.794 nM

Structure (SMILES): COc1cc(F)c(CN2C(=O)N(c3cc(S(C)(=O)=O)c(OC)nc3OC)CCc3c(F)cccc32)c(F)c1 [Example 25, 1-(2,6-difluoro-4-methoxybenzyl)-3-[2,6-dimethoxy-5-(methylsulfonyl)pyridin-3-yl]-6-fluoro-1,3,4,5-tetrahydro-2H-1,3-benzodiazepin-2-one]
- Ki (human OX1 receptor): 1.58 nM
- Ki (human OX2 receptor): > 126 nM

Structure (SMILES): COCc1cc(F)c(CN2C(=O)N(c3cnc(OC)c(C(C)(F)F)c3)CCc3c(F)cccc32)c(F)c1 [Example 7, 3-[5-(1,1-difluoroethyl)-6-methoxypyridin-3-yl]-1-[2,6-difluoro-4-(methoxymethyl)benzyl]-6-fluoro-1,3,4,5-tetrahydro-2H-1,3-benzodiazepin-2-one]
- Ki (human OX1 receptor): 1 nM

Structure (SMILES): COc1ncc(N2CCc3c(F)cccc3N(Cc3c(C)cc(Br)cc3F)C2=O)cc1S(C)(=O)=O [Example 17, 1-(4-bromo-2-fluoro-6-methylbenzyl)-6-fluoro-3-[6-methoxy-5-(methylsulfonyl)pyridin-3-yl]-1,3,4,5-tetrahydro-2H-1,3-benzodiazepin-2-one]
- Ki (human OX1 receptor): 0.794 nM

Structure (SMILES): COc1ncc(C2CCc3c(F)cccc3N(Cc3c(F)cc(Cl)cc3F)C2=O)cc1S(C)(=O)=O (single isomer, unassigned) [Example 22, 1-(4-chloro-2,6-difluorobenzyl)-6-fluoro-3-[6-methoxy-5-(methylsulfonyl)pyridin-3-yl]-1,3,4,5-tetrahydro-2H-1-benzazepin-2-one]
- Ki (human OX1 receptor): 0.501 nM
- Ki (human OX2 receptor): > 631 nM

Structure (SMILES): COc1ncc(N2CCc3c(F)cccc3N(Cc3c(F)cc(Cl)cc3F)C2=O)cc1C(C)(F)F [Example 9, 1-(4-chloro-2,6-difluorobenzyl)-3-[5-(1,1-difluoroethyl)-6-methoxypyridin-3-yl]-6-fluoro-1,3,4,5-tetrahydro-2H-1,3-benzodiazepin-2-one]
- Ki (human OX1 receptor): 0.794 nM

Structure (SMILES): COc1ncc(C2CCc3c(F)cccc3N(Cc3c(F)cc(Br)cc3F)C2=O)cc1S(C)(=O)=O (racemic) [Example 19, 1-(4-bromo-2,6-difluorobenzyl)-6-fluoro-3-[6-methoxy-5-(methylsulfonyl)pyridin-3-yl]-1,3,4,5-tetrahydro-2H-1-benzazepin-2-one]
- Ki (human OX1 receptor): 3.98 nM
- Ki (human OX2 receptor): > 251 nM

Structure (SMILES): [2H]C([2H])([2H])Oc1ncc(N2CCc3c(F)cccc3N(Cc3c(F)cc(Br)cc3F)C2=O)cc1C(C)(F)F [Example 2, 1-(4-bromo-2,6-difluorobenzyl)-3-{5-(1,1-difluoroethyl)-6-[(^2H3)methyloxy]pyridin-3-yl}-6-fluoro-1,3,4,5-tetrahydro-2H-1,3-benzodiazepin-2-one]
- Ki (human OX1 receptor): 0.631 nM

Structure (SMILES): COc1ncc(N2CCc3c(F)cccc3N(Cc3c(C)cc(F)cc3F)C2=O)cc1S(C)(=O)=O [Example 18, 1-(2,4-difluoro-6-methylbenzyl)-6-fluoro-3-[6-methoxy-5-(methylsulfonyl)pyridin-3-yl]-1,3,4,5-tetrahydro-2H-1,3-benzodiazepin-2-one]
- Ki (human OX1 receptor): 1.26 nM

Structure (SMILES): COc1ncc(C2CCc3c(F)cccc3N(Cc3c(F)cc(Br)cc3F)C2=O)cc1S(C)(=O)=O (single isomer, unassigned) [Example 21, 1-(4-bromo-2,6-difluorobenzyl)-6-fluoro-3-[6-methoxy-5-(methylsulfonyl)pyridin-3-yl]-1,3,4,5-tetrahydro-2H-1-benzazepin-2-one]
- Ki (human OX1 receptor): 0.316 nM

Structure (SMILES): [2H]C([2H])([2H])OCc1cc(F)c(CN2C(=O)N(c3cnc(OC)c(C(C)(F)F)c3)CCc3c(F)cccc32)c(F)c1 [Example 5, 3-[5-(1,1-difluoroethyl)-6-methoxypyridin-3-yl]-1-(2,6-difluoro-4-{[(^2H3)methyloxy]methyl}benzyl)-6-fluoro-1,3,4,5-tetrahydro-2H-1,3-benzodiazepin-2-one]
- Ki (human OX1 receptor): 0.316 nM

Structure (SMILES): COc1cc(F)c(CN2C(=O)N(c3cnc(OC)c(C(C)(F)F)c3)CCc3c(F)cccc32)c(F)c1 [Example 8, 3-[5-(1,1-difluoroethyl)-6-methoxypyridin-3-yl]-1-(2,6-difluoro-4-methoxybenzyl)-6-fluoro-1,3,4,5-tetrahydro-2H-1,3-benzodiazepin-2-one]
- Ki (human OX1 receptor): 0.398 nM
